Assay results taken from ChEMBL document CHEMBL1134016, “Different antagonist binding properties of human and rat histamine H3 receptors” (Bioorg Med Chem Lett, 2001).

Columns and labels:
Histamine H3 receptor [1] = target: T1, Histamine H3 receptor (Rattus norvegicus, UniProt Q9QYN8); assay: biochemical; assay type: cell-based, CHO-K1
Description: Inhibition of [125I]iodoproxyfan from rat histamine H3 receptor expressed in CHO-K1 cells

Histamine H3 receptor [2] = target: T2, Histamine H3 receptor (Homo sapiens, UniProt Q9Y5N1); assay: Ratio of binding affinity of rat histamine H3 receptor to that of human histamine H3 receptor;1:10
Histamine H3 receptor [3] = target: T2, Histamine H3 receptor; assay: biochemical; assay type: cell-based, CHO-K1
Description: Inhibition of [125I]iodoproxyfan binding to human histamine H3 receptor of CHO-K1 cells

Histamine H3 receptor [4] = target: T2, Histamine H3 receptor; assay: Ratio of binding affinity of rat histamine H3 receptor to that of human histamine H3 receptor; 1:3
Histamine H3 receptor [5] = target: T1, Histamine H3 receptor; assay: Binding affinity to rat Histamine H3 receptor in CHO-K1 cells using [125I]iodoproxyfan as radioligand; assay type: cell-based
Histamine H3 receptor [6] = target: T2, Histamine H3 receptor; assay: Ratio of binding affinity of rat histamine H3 receptor to that of human histamine H3 receptor;1:6
Histamine H3 receptor [7] = target: T2, Histamine H3 receptor; assay: Ratio of binding affinity of rat histamine H3 receptor to that of human histamine H3 receptor; 1:12

T2 sequence (Q9Y5N1 whole entry): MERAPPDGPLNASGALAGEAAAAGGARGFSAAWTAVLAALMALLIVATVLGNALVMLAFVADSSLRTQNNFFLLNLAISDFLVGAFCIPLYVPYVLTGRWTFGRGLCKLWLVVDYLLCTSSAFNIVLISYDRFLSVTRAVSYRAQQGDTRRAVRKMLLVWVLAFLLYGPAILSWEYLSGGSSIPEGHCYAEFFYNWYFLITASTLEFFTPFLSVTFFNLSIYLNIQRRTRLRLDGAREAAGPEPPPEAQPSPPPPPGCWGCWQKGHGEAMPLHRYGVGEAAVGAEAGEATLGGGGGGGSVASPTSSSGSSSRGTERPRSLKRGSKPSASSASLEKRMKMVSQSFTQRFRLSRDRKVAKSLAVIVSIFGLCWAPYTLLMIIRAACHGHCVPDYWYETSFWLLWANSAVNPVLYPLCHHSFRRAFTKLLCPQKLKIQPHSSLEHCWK
T1 sequence (Q9QYN8 whole entry): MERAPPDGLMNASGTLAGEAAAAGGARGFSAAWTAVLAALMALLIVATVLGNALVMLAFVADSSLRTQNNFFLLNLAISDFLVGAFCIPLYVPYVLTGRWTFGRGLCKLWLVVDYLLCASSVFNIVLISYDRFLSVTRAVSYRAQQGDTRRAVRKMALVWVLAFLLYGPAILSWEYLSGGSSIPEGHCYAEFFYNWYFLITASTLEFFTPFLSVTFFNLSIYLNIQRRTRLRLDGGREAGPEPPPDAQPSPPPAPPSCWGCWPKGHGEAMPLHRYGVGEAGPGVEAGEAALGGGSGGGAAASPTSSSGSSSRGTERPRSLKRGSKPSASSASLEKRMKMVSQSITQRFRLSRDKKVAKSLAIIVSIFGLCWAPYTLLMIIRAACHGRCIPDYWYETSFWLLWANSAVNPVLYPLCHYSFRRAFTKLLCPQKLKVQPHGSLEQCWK

SMILES	Ki (Histamine H3 receptor [1]) [nM]	Ki (Histamine H3 receptor [3]) [nM]	other results
O=C(c1ccc(OCCCc2cnc[nH]2)cc1)C1CC1 [CIPROXIFAN]	3.9		
CC(=O)c1ccc(SCCc2c[nH]cn2)cc1			Ratio (Histamine H3 receptor [2]): 10
Ic1ccc(COCCCc2c[nH]cn2)cc1 [IODOPROXYFAN]	71	41	
CC(=O)c1ccc(OCCCc2c[nH]cn2)cc1	29	87	Ratio (Histamine H3 receptor [4]): 3
S=C(NC1CCCCC1)N1CCC(c2cnc[nH]2)CC1 [THIOPERAMIDE]			Ki (Histamine H3 receptor [5]): 6.5 nM
c1ccc(OCCCc2c[nH]cn2)cc1		27	
CC(=O)c1ccc(OCCCCc2cnc[nH]2)cc1	36	19	
COc1ccc(OCCCc2c[nH]cn2)cc1	7.9	47	Ratio (Histamine H3 receptor [6]): 6
CC(=O)c1ccc(SCCc2cnc[nH]2)cc1	0.11	1.1	
CC(=O)c1ccc(OCCc2cnc[nH]2)cc1	3.6	42	
CC(=O)c1ccc(OCCc2c[nH]cn2)cc1			Ratio (Histamine H3 receptor [7]): 12
CC(=O)c1ccc(SCCCc2c[nH]cn2)cc1	44	18	
c1ccc(COCCCc2c[nH]cn2)cc1 [PROXYFAN]	2.9	2.7	
